According to patent US6727234B2, “Isoprenoid analog compounds and methods of making and use thereof” (University of Iowa Research Foundation, priority 2001, dated 2004):

What was measured:
[1] = Metabolic stability compared to previously prepared analogs; format: in vitro ADME; conditions: compared to other previously prepared analogs; attributed to amine linkage binding anthranilic acid to the terpenoid chain
Text: As exemplified in the reaction scheme below, Fischer esterification of commercial anthranilic acid provides the corresponding amino ester 54. Reductive amination of amine 54 with aldehyde 55, derived from SeO2 oxidation of geranyl acetate and subsequent MnO2 oxidation, gave the desired amine 56 and subsequent cleavage of the acetate gave the farnesol analog 57.

[2] = Fluorescence of the compound; format: physicochemical
Text: Compound 58 can be used in enzyme experiments with FPTase and Ras in order to obtain standard Ras proteins labeled with the fluorescent isoprenoid analog. Similarly compound 62 can be used with GGPTase I or II and proteins such as Rho B to obtain other protein standards. Protein standards obtained from in vitro experiments can then be used to analyze cell lysates for the formation of analogous proteins through in vivo experiments. Compound 58 ^1H NMR(D2O) δ7.6 (1H), 7.2 (1H), 6.4 (2H), 5.4 (1H), 5.2 (1H), 4.4 (2H), 3.6 (3H), 3.4 (2H), 2.0 (2H), 1.8 (2H), 1.6 (3H), 1.4 (3H); and ^31P NMR −6.9 (d, 1P) −9.75 (d, 1P).

[3] = test system: cell membranes; assay: Penetration of cell membranes to afford fluorescent cells; format: cell-based; conditions: affords fluorescent cells

## COC(=O)c1ccccc1NC/C(C)=C/CC/C(C)=C/CO [Compound 57]
[1]
  metabolic stability: much greater degree of metabolic stability
[2]
  fluorescence: highly fluorescent
[3]
  penetration of cell membranes: readily penetrates cell membranes
